The values below come from patent US20060189574A1, “Method of treating high plasma cholesterol levels” (priority 2000, published 2006).

Each structure is given as a SMILES string.

One experiment relates to plasma cholesterol. Description: Effect of Orlistat/XENICAL and cholestyramine/[…] on plasma cholesterol in volunteers. Particulars: for plasma cholesterol, mean: mean of volunteers. The format is in vivo, human. From the text:
The effect of a combination of Orlistat/XENICAL® and a bile acid sequestrant cholestyramine/[…]® on plasma cholesterol was examined.
Three hyper-cholesterolemic volunteers, one female, 2 males, […] cholesterol level: They continued on a combination of […], […]

Another experiment deals with animal models. Particulars: cited from earlier work.
The test system of a further experiment is fat absorption. Particulars: humans; cited from earlier work.

Regarding `CCCCCCCCCCC[C@@H](C[C@@H]1OC(=O)[C@H]1CCCCCC)OC(=O)[C@H](CC(C)C)NC=O` [Xenical, Orlistat], the plasma cholesterol course entry in the experiment on plasma cholesterol (all three individuals, end of 6 weeks treatment with Xenical b.i.d.) is given as “reasonably stable”. Also, the “plasma cholesterol, mean” value is reported as 252 mg/100 ml in the experiment on plasma cholesterol (week 4, Xenical b.i.d.); 225 mg/100 ml in the experiment with plasma cholesterol (week 5, Xenical b.i.d.); 247 mg/100 ml with plasma cholesterol (week 6, Xenical b.i.d.); 253 mg/100 ml with plasma cholesterol (week 11, Xenical b.i.d. after cessation of Quantalan); 263 mg/100 ml in the experiment with plasma cholesterol (week 13, Xenical b.i.d. after cessation of Quantalan). The plasma cholesterol was 252 mg/100 ml in the experiment on plasma cholesterol (volunteer 1, week 4, Xenical b.i.d.); 239 mg/100 ml in the experiment with plasma cholesterol (volunteer 1, week 5, Xenical b.i.d.); 233 mg/100 ml in the experiment with plasma cholesterol (volunteer 1, week 6, Xenical b.i.d.); 247 mg/100 ml with plasma cholesterol (volunteer 1, week 11, Xenical b.i.d. after cessation of Quantalan); 236 mg/100 ml with plasma cholesterol (volunteer 2, week 4, Xenical b.i.d.); 212 mg/100 ml in the experiment on plasma cholesterol (volunteer 2, week 5, Xenical b.i.d.). In addition, the plasma cholesterol in the experiment on plasma cholesterol (volunteer 2, week 6, Xenical b.i.d.) stood at 232 mg/100 ml; in the experiment with plasma cholesterol (volunteer 2, week 11, Xenical b.i.d. after cessation of Quantalan) it was 230 mg/100 ml; in the experiment with plasma cholesterol (volunteer 2, week 13, Xenical b.i.d. after cessation of Quantalan), 226 mg/100 ml; with plasma cholesterol (volunteer 3, week 4, Xenical b.i.d.), 269 mg/100 ml; in the experiment with plasma cholesterol (volunteer 3, week 6, Xenical b.i.d.), 277 mg/100 ml; in the experiment with plasma cholesterol (volunteer 3, week 11, Xenical b.i.d. after cessation of Quantalan), 282 mg/100 ml. Also, the plasma cholesterol with plasma cholesterol (volunteer 3, week 13, Xenical b.i.d. after cessation of Quantalan) was determined as 300 mg/100 ml. Moreover, the body weight entry in the experiment with animal models is “reduce body weight”. The results for the fat absorption result in the experiment with animal models and in the experiment on fat absorption were “inhibit fat absorption” and “potent inhibition of fat absorption”, respectively.
